The values that follow are results of earlier work, collected in US20160346171A1, “ORAL COMPOSITION AND CONFECTION” (TEIKYO UNIVERSITY, priority 2015, published 2016).

Read-outs that look alike come from different tables or passages of the source. Where only a bound is given, the exact number is not on record here.

Data set [1] has as its system Candida. The settings on record: for concentration inhibiting in vitro Candida mycelial growth by 95%: each independently, JP 2013-40156 A.
In data set [2] the test system is Candida. To be noted: mouse.

Take `CC(C)=CCC/C(C)=C/CO` [geraniol]: the “concentration inhibiting in vitro Candida mycelial growth by 95%” value (“concentration inhibiting … by 95%” for short) in the data set with Candida [1] is on record as “at least 25 μg/mL”. In the case of `C=CCc1ccc(O)c(OC)c1` [eugenol], in the data set with Candida [1], the “concentration inhibiting … by 95%” value is reported as “at least 200 μg/mL”. Take `CC(C)=CCCC(C)=CC=O` [citral]: the “concentration inhibiting … by 95%” value with Candida [1] is “at least 50 μg/mL”.

Regarding `CCCCCCCCCC(=O)O` [decanoic acid], the “concentration inhibiting in vitro Candida mycelial growth by 50%” value with Candida [1] (Inoue S. et al. 2012) is at least 3.13 µg/mL. Besides, in the data set with Candida [1], the “concentration inhibiting … by 95%” value is on record as “at least 3.13 μg/mL”. The tongue symptoms entry in the data set with Candida [2] (1% (=10 mg/mL) solution, three times (50 μL at a time), JP 2013-40156 A) is on record as “ameliorated the tongue symptoms”.

Turning to `O=CC=Cc1ccccc1` [cinnamaldehyde], the tongue symptoms entry in the data set on Candida [2] (19.5 mg/mL solution, three times (50 μL at a time) into the oral cavity, Taguchi Y. et al. 2011) is on record as “ameliorated the tongue symptoms”.
